Assay results reported in US8436012B2, “Imidazopyridin-2-one derivatives” (Daiichi Sankyo Company, Limited, priority 2008, dated 2013).

Legend:
human mTOR = target: T1, human mTOR (Homo sapiens, UniProt P42345); assay: mTOR Kinase Activity Inhibition Test; type: biochemical; settings: His-tagged mTOR (1362C), biotinylated peptide substrate, ATP, 3 hours at room temperature, fluorescence resonance energy transfer 665 nm/620 nm; read-out: IC50 value of mTOR enzyme inhibitory activity
T1 construct: the portion corresponding to 1362-2549aa at the C terminus of human mTOR; made in house
Procedure, shortened: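 Purified His-tagged human mTOR (1362–2549aa, from HEK293) was used with biotinylated peptide (8 μg/mL in enzyme solution) in HEPES pH 7.5 with 20 mM MnCl2. Compounds were diluted in 20 μM ATP solution, and the reaction ran 3 h at RT. Phospho-S6K(Thr389) HTRF was read as the 665/620 nm ratio, and IC50 came from % inhibition versus controls.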

WM-266-4 cells = assay: Cell Proliferation Inhibitory Test; type: cell-based; settings: Homo sapiens, 72 h, cultured three days with test compound, MTT, read-out: 50% cell proliferation inhibitory activity (GI50 value)
Procedure, shortened: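 Cells cultured overnight, then exposed to serially diluted compound for three days; cell amount read by MTT. GI50 solved from 100×[(T−T0)/(C−T0)]=50, with T0 the value at time of compound addition and C the untreated three-day control.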

T1 sequence (P42345 1362-2549): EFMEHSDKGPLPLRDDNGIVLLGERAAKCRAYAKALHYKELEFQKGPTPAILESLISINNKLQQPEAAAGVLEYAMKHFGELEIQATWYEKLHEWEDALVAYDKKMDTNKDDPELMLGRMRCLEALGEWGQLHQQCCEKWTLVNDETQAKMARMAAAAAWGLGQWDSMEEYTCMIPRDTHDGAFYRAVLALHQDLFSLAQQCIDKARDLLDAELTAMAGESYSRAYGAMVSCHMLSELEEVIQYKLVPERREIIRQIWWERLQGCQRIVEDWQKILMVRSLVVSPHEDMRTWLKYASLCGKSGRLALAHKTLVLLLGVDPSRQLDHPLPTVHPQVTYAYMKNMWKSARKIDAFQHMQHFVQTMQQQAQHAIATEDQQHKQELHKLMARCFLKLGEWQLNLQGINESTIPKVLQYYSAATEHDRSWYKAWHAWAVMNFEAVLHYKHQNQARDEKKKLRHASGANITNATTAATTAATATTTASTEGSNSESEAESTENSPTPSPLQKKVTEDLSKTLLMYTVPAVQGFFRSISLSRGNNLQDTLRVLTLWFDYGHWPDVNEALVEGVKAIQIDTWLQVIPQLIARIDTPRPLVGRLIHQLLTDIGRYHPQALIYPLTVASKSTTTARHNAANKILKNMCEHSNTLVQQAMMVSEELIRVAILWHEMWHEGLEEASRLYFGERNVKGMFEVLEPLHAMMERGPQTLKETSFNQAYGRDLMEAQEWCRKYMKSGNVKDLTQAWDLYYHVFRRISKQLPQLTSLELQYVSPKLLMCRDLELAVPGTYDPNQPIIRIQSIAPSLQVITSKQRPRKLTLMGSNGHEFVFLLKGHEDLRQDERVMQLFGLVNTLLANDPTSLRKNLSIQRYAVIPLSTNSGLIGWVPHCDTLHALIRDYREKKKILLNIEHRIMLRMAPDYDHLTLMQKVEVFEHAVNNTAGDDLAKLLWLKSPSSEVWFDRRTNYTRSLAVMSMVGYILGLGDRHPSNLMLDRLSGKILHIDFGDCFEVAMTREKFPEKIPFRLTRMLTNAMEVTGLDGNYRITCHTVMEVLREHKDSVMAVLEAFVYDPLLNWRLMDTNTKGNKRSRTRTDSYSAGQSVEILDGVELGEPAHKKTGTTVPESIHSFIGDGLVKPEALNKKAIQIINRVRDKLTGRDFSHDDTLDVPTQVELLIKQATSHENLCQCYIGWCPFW

Structure (SMILES) | IC50 (human mTOR) [nM] | GI50 (WM-266-4 cells) [nM]
O=c1[nH]c2ncc(-c3ccc4[nH]ccc4n3)cc2n1CC1CCOCC1 [Example 82, 6-(1H-Pyrrolo[3,2-b]pyridin-5-yl)-1-(tetrahydro-2H-pyran-4-ylmethyl)-1,3-dihydro-2H-imidazo[4,5-b]pyridin-2-one] | < 50 | < 3000
Cc1c(-c2cnc3[nH]c(=O)n(C[C@H]4CC[C@@H](O)CO4)c3c2)cnc2[nH]ccc12 [Example 143, 2,6-Anhydro-1,3,4-trideoxy-1-[6-(4-methyl-1H-pyrrolo[2,3-b]pyridin-5-yl)-2-oxo-2,3-dihydro-1H-imidazo[4,5-b]pyridin-1-yl]-L-threo-hexitol] | < 50 | < 3000
O=C1COC(Cn2c(=O)[nH]c3ncc(-c4cnc5[nH]ccc5c4)cc32)CN1 (stereo not drawn) [Example 110, 1-[(5-Oxomorpholin-2-yl)methyl]-6-(1H-pyrrolo[2,3-b]pyridin-5-yl)-1,3-dihydro-2H-imidazo[4,5-b]pyridin-2-one] | < 50 | 3000 to 25000
O=c1[nH]c2ncc(-c3cnc4[nH]ccc4c3)cc2n1CC1CCS(=O)(=O)CC1 [Example 97, 1-[(1,1-Dioxidotetrahydro-2H-thiopyran-4-yl)methyl]-6-(1H-pyrrolo[2,3-b]pyridin-5-yl)-1,3-dihydro-2H-imidazo[4,5-b]pyridin-2-one] | < 50 | 3000 to 25000
CC(C1CCOCC1)n1c(=O)[nH]c2ncc(-c3cnc4[nH]ccc4c3)cc21 (stereo not drawn) [Example 24, 6-(1H-Pyrrolo[2,3-b]pyridin-5-yl)-1-[1-(tetrahydro-2H-pyran-4-yl)ethyl]-1,3-dihydro-2H-imidazo[4,5-b]pyridin-2-one] | < 50 | < 3000
CC(C)c1c[nH]c2ncc(-c3cnc4[nH]c(=O)n(CC5CCOCC5)c4c3)cc12 [Example 90, 6-{3-Isopropyl-1H-pyrrolo[2,3-b]pyridin-5-yl}-1-(tetrahydro-2H-pyran-4-ylmethyl)-1,3-dihydro-2H-imidazo[4,5-b]pyridin-2-one] | < 50 | < 3000
O=c1[nH]c2ncc(-c3cnc4[nH]ccc4c3)cc2n1C[C@@H]1COC[C@@H]1O (racemic) [Example 62] | < 50 | < 3000
Cc1nc2[nH]c(=O)n(CC3CCOCC3)c2cc1-c1cnc2[nH]ccc2c1 [Example 17, 5-Methyl-6-(1H-pyrrolo[2,3-b]pyridin-5-yl)-1-(tetrahydro-2H-pyran-4-ylmethyl)-1,3-dihydro-2H-imidazo[4,5-b]pyridin-2-one] | < 50 | < 3000
O=C(O)c1c[nH]c2ncc(-c3cnc4[nH]c(=O)n(CC5CCOCC5)c4c3)cc12 [Example 93, 5-[2-oxo-1-(tetrahydro-2H-pyran-4-ylmethyl)-2,3-dihydro-1H-imidazo[4,5-b]pyridin-6-yl]-1H-pyrrolo[2,3-b]pyridine-3-carboxylic acid] | < 50 | 3000 to 25000
O=c1[nH]c2ncc(-c3ccc4[nH]ncc4c3)cc2n1CC1CCOCC1 [Example 14, 6-(1H-Indazol-5-yl)-1-(tetrahydro-2H-pyran-4-ylmethyl)-1,3-dihydro-2H-imidazo[4,5-b]pyridin-2-one] | 100 to 5000 | 3000 to 25000
O=c1[nH]c2ncc(-c3cnc4[nH]cc(F)c4c3)cc2n1C[C@H]1COCCO1 [Example 118, 1-[(2S)-1,4-Dioxan-2-ylmethyl]-6-(3-fluoro-1H-pyrrolo[2,3-b]pyridin-5-yl)-1,3-dihydro-2H-imidazo[4,5-b]pyridin-2-one] | < 50 | < 3000
O=c1[nH]c2ncc(-c3cnc4[nH]ccc4c3)cc2n1C[C@@H]1COC[C@H]1O (racemic) [Example 61] | < 50 | < 3000
O=c1[nH]c2ncc(-c3cnc4[nH]ccc4c3F)cc2n1C[C@H]1COCCO1 [Example 120, 1-[(2S)-1,4-Dioxan-2-ylmethyl]-6-(4-fluoro-1H-pyrrolo[2,3-b]pyridin-5-yl)-1,3-dihydro-2H-imidazo[4,5-b]pyridin-2-one] | < 50 | < 3000
CN(C)c1c(-c2cnc3[nH]c(=O)n(C[C@H]4COCCO4)c3c2)cnc2[nH]ccc12 [Example 131, 6-[4-(Dimethylamino)-1H-pyrrolo[2,3-b]pyridin-5-yl]-1-[(2S)-1,4-dioxan-2-ylmethyl]-1,3-dihydro-2H-imidazo[4,5-b]pyridin-2-one] | 100 to 5000 | 3000 to 25000
O=c1[nH]c2ncc(-c3cnc4[nH]ccc4c3)cc2n1CCC1CCOCC1 [Example 20, 6-(1H-Pyrrolo[2,3-b]pyridin-5-yl)-1-[2-(tetrahydro-2H-pyran-4-yl)ethyl]-1,3-dihydro-2H-imidazo[4,5-b]pyridin-2-one] | < 50 | < 3000
Cc1c[nH]c2ncc(-c3cnc4[nH]c(=O)n(C[C@H]5COCCO5)c4c3)cc12 [Example 43, 1-[(2S)-1,4-Dioxan-2-ylmethyl]-6-(3-methyl-1H-pyrrolo[2,3-b]pyridin-5-yl)-1,3-dihydro-imidazo[4,5-b]pyridin-2-one] | < 50 | < 3000
CC(Cn1c(=O)[nH]c2ncc(-c3cnc4[nH]ccc4c3)cc21)C1CCOCC1 (stereo not drawn) [Example 50, 6-(1H-Pyrrolo[2,3-b]pyridin-5-yl)-1-[2-(tetrahydro-2H-pyran-4-yl)propyl]-1,3-dihydro-2H-imidazo[4,5-b]pyridin-2-one] | < 50 | < 3000
Cc1c(-c2cnc3[nH]c(=O)n(C[C@H]4COCCO4)c3c2)cnc2[nH]cc(Cl)c12 [Example 125, 6-(3-Chloro-4-methyl-1H-pyrrolo[2,3-b]pyridin-5-yl)-1-[(2S)-1,4-dioxan-2-ylmethyl]-1,3-dihydro-2H-imidazo[4,5-b]pyridin-2-one] | < 50 | < 3000
COc1c(-c2cnc3[nH]c(=O)n(C[C@H]4COCCO4)c3c2)cnc2[nH]ccc12 [Example 133, 1-[(2S)-1,4-Dioxan-2-ylmethyl]-6-(4-methoxy-1H-pyrrolo[2,3-b]pyridin-5-yl)-1,3-dihydro-2H-imidazo[4,5-b]pyridin-2-one] | < 50 | < 3000
O=c1[nH]c2ncc(-c3cnc4[nH]cc(C(F)(F)F)c4c3)cc2n1CC1CCOCC1 [Example 84, 1-(Tetrahydro-2H-pyran-4-ylmethyl)-6-[3-(trifluoromethyl)-1H-pyrrolo[2,3-b]pyridin-5-yl]-1,3-dihydro-2H-imidazo[4,5-b]pyridin-2-one] | < 50 | 3000 to 25000
COc1c[nH]c2ncc(-c3cnc4[nH]c(=O)n(C[C@H]5COCCO5)c4c3)cc12 [Example 134, 1-[(2S)-1,4-Dioxan-2-ylmethyl]-6-(3-methoxy-1H-pyrrolo[2,3-b]pyridin-5-yl)-1,3-dihydro-2H-imidazo[4,5-b]pyridin-2-one] | < 50 | < 3000
O=c1[nH]c2ncc(-c3cnc4[nH]ccc4c3)cc2n1C[C@H]1COC[C@@H](O)C1 (racemic) [Example 65, 1-{[cis-5-Hydroxytetrahydro-2H-pyran-3-yl]methyl}-6-(1H-pyrrolo[2,3-b]pyridin-5-yl)-1,3-dihydro-2H-imidazo[4,5-b]pyridin-2-one] | < 50 | < 3000
O=c1[nH]c2ncc(-c3cnc4[nH]ccc4c3)cc2n1CC1=CCCOC1 [Example 31, 1-(5,6-Dihydro-2H-pyran-3-ylmethyl)-6-(1H-pyrrolo[2,3-b]pyridin-5-yl)-1,3-dihydro-2H-imidazo[4,5-b]pyridin-2-one] | < 50 | < 3000
O=c1[nH]c2ncc(-c3ccc4[nH]ccc4c3)cc2n1CC1CCOCC1 [Example 4, 6-(1H-Indol-5-yl)-1-(tetrahydro-2H-pyran-4-ylmethyl)-1,3-dihydro-2H-imidazo[4,5-b]pyridin-2-one] | < 50 | < 3000
